Entries after “also recorded” stand apart in the source; their conditions may differ.
Experiments:
PC3 cells = experiment: Cell death assay with docetaxel and TRC105; type: cell-based, human; conditions: different concentrations of docetaxel and TRC105
Protocol: The PC3 cells used in the cell death assay were treated with different concentrations of docetaxel in the presence of different concentrations of TRC105.

C4-2B = experiment: Clonogenic survival assay with radiation; type: cell-based, human; conditions: 1 μg/ml TRC105 vs IgG, 0 to 6 Gy; p<0.001
Protocol: (§1) FIG. 18A) Cell surface CD105 expression was measured in PC3, C42b, and 22Rv1 72 hours after 4 Gy irradiation treatment by FACS analysis and compared to cells not irradiated (control). FIG. 18B) Cell surface CD105 expression was measured in cell lines following a dose range of irradiation (0, 2, 4, or 6 Gy). FIG. 18C) The durability of cell surface CD105 expression in 22Rv1 was determined 0, 0.5, 4, 8, 24, 48, 72, 120, and 168 hours following 4 Gy irradiation. CD105 cell surface expression fold change was normalized to levels expressed prior to irradiation. FIG. 18D) Western blot for phosphorylated-Smad1/5 was measured in CW22Rv1 cells in the presence or absence of serum starvation and treatment with 50 ng/ml BMP4 or 1 μg/ml TRC105. β-actin expression served as the loading control. FIG. 18E) Annexin-V expression was measured in 22Rv1 cells by FACS analysis 5 days following 4 Gy irradiation in the presence and absence of TRC105. FIG. 18F) Clonogenic assay was measured 10 days following irradiation of CW22Rv1 and C42b cells in a dose range of 0 to 6 Gy in the presence of 1 μg/ml IgG or TRC105. Data are reported as a mean+/−S.D. (**p<0.01, ***p<0.001).

CW22Rv1 = experiment: Clonogenic survival assay with radiation; type: cell-based, human; conditions: 1 μg/ml TRC105 vs IgG, 0 to 6 Gy; p<0.001
Protocol: as §1

[1] = system: NRF1, MTFA, and CPT1C in 22Rv1 cells; experiment: mRNA expression of PGC1α target genes; type: cell-based, human; conditions: radiation vs radiation plus TRC105; p<0.001
Protocol: FIGS. 24A-24D depict that PGC1α and mitochondrial biogenesis are regulated by BMP/CD105. 22Rv1 cells were incubated with IgG or TRC105 with or without 4 Gy irradiation. All measurements were made 72 hours post radiation. FIG. 24A) Western blot for whole cell lysate, nuclear and cytoplasmic fractions were independently analyzed for PGC1α expression. Loading controls included β-actin (whole cell), lamin B (nuclear marker), and Rho A (cytoplasm marker). FIG. 24B) Immunofluorescent localization of PGC1α was visualized with DAPI nuclear counterstain. FIG. 24C) mRNA expression of PGC1α target genes, NRF1, MTFA, and CPT1C was measured. mRNA expression was normalized to GAPDH and untreated IgG 0 Gy. FIG. 24D) Mitochondrial DNA (mtDNA) was measured from total DNA extracts and normalized to nuclear DNA and compared to untreated IgG 0 Gy. Data are reported as means+/−S.D. of 3 independent experiments. (***p<0.001, ****p<0.0001).
Total RNA was extracted using the RNeasy kit (Qiagen). 1 μg RNA was used for cDNA synthesis using iSCRIPT cDNA synthesis kit (1708891, Bio-Rad). Quantitative RT-PCR was performed with 5 replicates using the Step One Real-Time PCR system (Applied Biosystems). […] For RNA-sequencing, Ion Proton AmpliSeq Transcriptome RNA Sequencing was performed achieving an average of 3M reads. We mapped an average of 88% of the reads to the human genome with Torrent Suite version 4.4.2.

22Rv1 cells = experiment: Total cellular ATP; type: cell-based, human; conditions: with or without 4 Gy, 0-168 hours
Protocol: Cells were analyzed for mito-stress test by Seahorse-XF 168 hours following 4 Gy of radiation in the presence of IgG or TRC105. FIG. 26A) Basal respiration, non-mito respiration, proton leak, spare respiratory capacity, FIG. 26B) extracellular acidification rate (ECAR) and FIG. 26C) mitochondrial dependent ATP production were quantitated using Wave 2.3.0 analysis. Data are reported as mean+/−S.D. of a representative experiment (n=5) of 3 independent experiments. FIGS. 26A-26C, the first/left column depicts 0Gy+IgG, the second column depicts 0Gy+TRC105, the third column depicts 4Gy+IgG and the last/right column depicts 4Gy+TRC105. FIG. 26D) 22Rv1 cells treated with IgG, TRC105 or nicotinamide were irradiated (4 Gy). Total cellular ATP was measured 0, 24, 72, 120, and 168 hours post radiation. Within each group, the left column is IgG, middle column is TRC105 and the right column is nicotinamide. Data are reported as mean+/−S.D. of 3 independent experiments. (***p<0.001, ****p<0.0001).

[2] = system: androgen receptor variants and RNPC1; experiment: Androgen receptor variants and RNPC1 expression; type: cell-based
p53 in 22Rv1 cells = experiment: p53 status after irradiation; type: cell-based, human
Protocol: In search for an alternate process mediating TRC105 radiation sensitization the inventors examined changes in cell cycle. The impact of radiation on the cell cycle is well described, as causing a G2 cell cycle arrest that undergoes cell cycle redistribution. […] As SIRT1 has previously been reported to regulate p53 stability by de-acetylating p53, the inventors investigated p53 status with TRC105 treatment. 22Rv1 cells were treated with either TRC105 or 200 μM nicotinamide, an inhibitor of SIRT1 activity, prior to irradiation (4Gy). Cells were then collected at 0, 1, and 7 days post radiation to elucidate early and late p53 response. […] While loss-of-function p53 mutations are rare in prostate cancer, 90% of pancreatic cancers have p53 mutations. We therefore used two p53 mutant pancreatic cancer cell lines: HPAF-II and MIAPACA-2 to identify if TRC105 unresponsiveness to radiation was due to p53 loss of functionality.

TRC105: partially humanized monoclonal antibody that blocks BMP signaling; human-specific CD105 (endoglin) neutralizing antibody from Tracon Pharmaceuticals
sensitization to docetaxel, cell death (PC3 cells): taxane sensitizer
radiation sensitivity, clonogenic survival (C4-2B): sensitized prostate cancer cells to radiation
radiation sensitivity, clonogenic survival (CW22Rv1): sensitized prostate cancer cells to radiation
mRNA expression of NRF1, MTFA, and CPT1C [1]: significantly increased with radiation compared to that in the presence of TRC105
cellular ATP stores (22Rv1 cells): depleted regardless of radiation treatment
RNPC1 (RBM38) expression ([2]; TRC105): down regulated
androgen receptor variants expression ([2]; TRC105): down regulated; also recorded: down-regulated
Notch and IL-6 mediated ARv expression ([2]; antagonizing endoglin): down regulate Notch and IL-6 mediated ARv expression
acetylated and total-p53 (p53 in 22Rv1 cells; by 7 days post radiation): markedly increased
anti-apoptotic protein Bc1-2 (p53 in 22Rv1 cells; prior to 4Gy irradiation): decrease in the anti-apoptotic protein Bc1-2
p21 (p53 in 22Rv1 cells; prior to 4Gy irradiation): increase in p21
acetylated p53 (p53 in 22Rv1 cells; treatment prior to 4Gy, nicotinamide 200 μM): increase in acetylated p53

— patent publication US20200239587A1, “SENSITIZATION OF TUMORS TO THERAPIES THROUGH ENDOGLIN ANTAGONISM” (Cedars-Sinai Medical Center, priority 2016, published 2020)
